Residue numbers refer to the chain shown, from its start. Names may count otherwise.
B1: R31H: variant CAR junction region, replacement numbered per SEQ ID NO:5 (protein)
chain: FWVLVVVGGVLACYSLLVTVAFIIFWVKRGHKKLLYIFKQPFMRPVQTTQEEDGCSCRFPEEEEGGCEL
modifications: CD28-4-1BB
B2: L34S: variant CAR junction region, replacement numbered per SEQ ID NO:5 (protein)
chain: B1 chain with H31R, L34S
modifications: CD28-4-1BB
B3: L34A: variant CAR junction region, replacement numbered per SEQ ID NO:5 (protein)
chain: B1 chain with H31R, L34A
modifications: CD28-4-1BB

How the values were obtained:
HLA-A*11:01 = HLA-A*11:01 (Homo sapiens, UniProt P04439, A114D/D185E/E176A/F33Y/L180Q/S129P/T187R); test: REVEAL Epitope Discovery System in vitro MHC-peptide binding assay, HLA-A*11:01; conditions: binding normalized to positive control peptide set at 100%, score >50 considered good or high affinity binding
Method: (§1) Actual binding affinities for certain HLA class I alleles (A*02:01, A*03:01, A*11:01, and B*08:01) were assessed in vitro for exemplary overlapping 9 amino acid peptide sequences within a portion of the 26 amino acid junction region spanning the CD28 and 4-1BB junction. Specifically, assessment was of a series of overlapping 9-mer peptides derived from the sequence […] (set forth in SEQ ID NO: 7), which contains a portion of the CD28 transmembrane domain and 4-1BB costimulatory domain spanning the junction between the domains (bond joining the two amino acids noted in underline). In addition, a series of overlapping 9-mer peptides of each of a number of different variants of this portion also were assessed, each variant containing a mutation or mutations in this region as described in Example 2.
(§2) The various 9-mer overlapping peptides were synthesized and their purity tested by MALDI-TOF Mass Spectrometry. The synthetic peptides were then incubated with recombinant MHC molecules to assess binding properties using the REVEAL Epitope Discovery System, which is a high-throughput binding assay that measures the degree to which each peptide is able to stabilize a ternary MHC-peptide complex (ProImmune, Oxford, United Kingdom). Each peptide was separately tested for this ability with respect to each of the HLA class I alleles, normalized to the degree observed for a positive control (known T cell epitope for the relevant allele). The results are reported as a score, in which the binding was normalized to the positive control peptide set at 100%.

HLA-B*08:01 = HLA-B*08:01 (Homo sapiens, UniProt P01889, A93T/A95T/D138N/E176V/E187T/K202T/Q94N/R180D/S35A/V36M/Y33D/Y91F); test: REVEAL Epitope Discovery System in vitro MHC-peptide binding assay, HLA-B*08:01; conditions: binding normalized to positive control peptide set at 100%, score >50 considered good or high affinity binding
Method: as §1, §2

[1] = tested on: HLA class I alleles (A*02:01, A*03:01, A*11:01, and B*08:01); test: Comparison of in silico and in vitro binding of variant junction peptides to HLA class I alleles (summary); parameters: species or system human; conditions: without higher binding affinity to another HLA allele or for another peptide
Method: as §1, §2
The results were compared to predicted binding (IC50) values obtained for binding of the same peptide:MHC complex, using the in silico prediction methods as described in Example 2. Since the maximum IC50 value predicted was about 50,000, the IC50 values were log transformed, subtracted from LOG(50000) and divided by LOG(50000) to obtain a normalized in silico score ((Log(50000)−log IC50)/Log(50000)). […]

In Vitro Score (A*11:01) (HLA-A*11:01) | In Vitro Score (B*08:01) (HLA-B*08:01) | predicted or actual binding affinity or score for at least one HLA allele and/or at least one peptide [1] | Molecule
51.80 | 0.20 |  | AFIIFWVAR [junction 9-mer, peptide 2, mutation K29A]
34.90 | 0.30 |  | AFIIFWVHR [junction 9-mer, peptide 2, mutation K29H]
54.00 | 0.30 |  | AFIIFWVSR [junction 9-mer, peptide 2, mutation K29S]
0.90 | 0.20 |  | FIIFWVHRG [junction 9-mer, peptide 3, mutation K29H]
8.90 |  |  | FWVARGRKK [junction 9-mer, peptide 6, mutation K29A]
34.90 | 0.00 |  | IFWVARGRK [junction 9-mer, peptide 5, mutation K29A]
36.60 | 0.10 |  | IFWVHRGRK [junction 9-mer, peptide 5, mutation K29H]
69.70 | 2.20 |  | IFWVKRGAK [junction 9-mer, peptide 5, mutation R32A]
30.90 | 3.20 |  | IFWVKRGHK [junction 9-mer, peptide 5, mutation R32H]
61.10 | 58.30 |  | IFWVKRGLK [junction 9-mer, peptide 5, mutation R32L]
45.90 | 0.10 |  | IFWVKRGNK [junction 9-mer, peptide 5, mutation R32N]
47.90 | 1.20 |  | IFWVKRGSK [junction 9-mer, peptide 5, mutation R32S]
61.30 | 0.20 |  | IFWVQRGAK [junction 9-mer, peptide 5, mutation K29Q/R32A]
67.50 | 0.10 |  | IFWVQRGNK [junction 9-mer, peptide 5, mutation K29Q/R32N]
128.50 | 0.00 |  | IFWVQRGRK [junction 9-mer, peptide 5, mutation K29Q]
39.20 | 0.00 |  | IFWVSRGRK [junction 9-mer, peptide 5, mutation K29S]
70.60 | 0.30 |  | IIFWVARGR [junction 9-mer, peptide 4, mutation K29A]
77.50 | 0.20 |  | IIFWVHRGR [junction 9-mer, peptide 4, mutation K29H]
22.60 | 0.90 |  | IIFWVKRGA [junction 9-mer, peptide 4, mutation R32A]
32.40 | 1.70 |  | IIFWVKRGL [junction 9-mer, peptide 4, mutation R32L]

In Vitro Score (A*11:01) (HLA-A*11:01) | In Vitro Score (B*08:01) (HLA-B*08:01) | predicted or actual binding affinity or score for at least one HLA allele and/or at least one peptide [1] | Molecule
42.10 | 0.90 |  | IIFWVKRGN [junction 9-mer, peptide 4, mutation R32N]
54.50 | 0.00 |  | IIFWVKRGR
100.00 | 0.40 |  | IIFWVKRGS [junction 9-mer, peptide 4, mutation R32S]
35.20 | 0.40 |  | IIFWVLRGR [junction 9-mer, peptide 4, mutation K29L]
56.50 | 0.20 |  | IIFWVQRGA [junction 9-mer, peptide 4, mutation K29Q/R32A]
72.80 | 0.10 |  | IIFWVQRGR [junction 9-mer, peptide 4, mutation K29Q]
68.90 | 0.00 |  | IIFWVSRGR [junction 9-mer, peptide 4, mutation K29S]
109.20 | 0.30 |  | VAFIIFWVK
34.60 | 0.10 |  | VAFIIFWVR [junction 9-mer, peptide 1, mutation K29R]
25.10 | 0.10 |  | VAFIIFWVS [junction 9-mer, peptide 1, mutation K29S]
13.80 | 32.40 |  | WVARGRKKL [junction 9-mer, peptide 7, mutation K29A]
4.60 | 34.10 |  | WVKRGAKKL [junction 9-mer, peptide 7, mutation R32A]
2.80 | 47.60 |  | WVKRGHKKL [junction 9-mer, peptide 7, mutation R32H]
4.10 | 65.90 |  | WVKRGNKKL [junction 9-mer, peptide 7, mutation R32N]
11.80 | 56.10 |  | WVKRGSKKL [junction 9-mer, peptide 7, mutation R32S]
10.70 | 32.00 |  | WVQRGNKKL [junction 9-mer, peptide 7, mutation K29Q/R32N]
12.80 | 45.10 |  | WVQRGRKKL [junction 9-mer, peptide 7, mutation K29Q]
 |  | reduced | B1
 |  | reduced | B2
 |  | reduced | B3

Source: patent publication US11266739B2, “Methods and compositions for adoptive cell therapy” (Juno Therapeutics, Inc., priority 2014, dated 2022)
